Entries after “also recorded” stand apart in the source; their conditions may differ.
What was measured:
Myc-CAP-PTEN^−/− cells = test: Myc-CAP-PTEN−/− cells in vitro (western blotting, cytokine array); format: cell-based, mouse; conditions: 1 μM, 24 hours
Method: FIGS. 35A-35D. […] (35A) Myc-CAP-PTEN^−/− cells were treated with copanlisib […] (IC90 concentration) in vitro for 24 hours, and protein extracts were harvested for western blotting analysis with the indicated antibodies to analyze PI3K activation. (35B) Supernatants from (35A) were harvested for cytokine array profiling. n=3 independent in vitro experiments. (35C) Mice bearing Myc-CAP-PTEN^−/− established syngeneic tumors (200 mm^3) were treated with copanlisib (14 mg/kg, every other day, until tumors reached 2000 mm^3). Tumor volumes were monitored daily and graphed. (35D) At the end of treatment, tumors were analyzed by flow cytometry for tumor infiltrating immune cell subsets. n=5 mice per group.
FIGS. 49A and 49B. PTEN-deficient cancer cells have diminished STING expression that can be restored by […] and pan-PI3K inhibitors. (49A) Isogenic MC38, Myc-CAP, ID8, and TRAMP cells (−/+ PTEN) were analyzed for STING mRNA and protein expression by qRT-PCR and western blotting, respectively. (49B) Myc-CAP-PTEN^−/− cells were treated with GSK′771 (PI3Kβ-selective inhibitor, 1 μM) or BKM120 (pan-PI3K inhibitor, 1 μM) for 24 hours, and proteins were analyzed for STING expression and PI3K activation by western blotting.
Cancer Cell Lines and in vitro drug treatments. Transgenic c-myc^hi prostate tumor derived cell line, Myc-CAP and TRAMPC1, ovarian cancer cell line ID8 and murine colon adenocarcinoma line MC38 were obtained from the American Type Culture Collection (ATCC) and passaged in either 1×RPMI/1×DMEM (with phenol) or 1×DMEM (without phenol red) containing 10% fetal bovine serum, 1% penicillin-streptomycin, 2% L-glutamine and 1×ITS. ID8^pten−/−p53−/−cells were a kind gift from Dr. Ian McNeish (Imperial College, London). For generation of STING over expressing cell lines −Myc-CAP^pten+/+ and ID8^pten−/− cells were transfected with commercial available plasmid (DC-Mm22462-SH02, Genecoepia™), sorted and expanded as per protocol. […]

[1] = IC90 concentrations stated for in vitro/ex vivo drug treatments; conditions: FIG. 50, Myc-CAP-PTEN^−/− tumor suspensions; read-out: IC90 concentration
BMDMs = test: BMDM co-culture with supernatants from drug-treated cancer cells; format: cell-based, mouse; conditions: cGAMP 10 μg/mL, 30 hours
Description: FIGS. 29A-29M. PARPi alone induces DNA DSBs, but not apoptosis even in combination with PI3Ki in Myc-CAP (STING^lo) cancer cells; PARPi/PI3Ki combination induces intracellular DNA DSBs and proportionate release of MV surface-associated DNA DSBs from B6-Myc (STINGhi) cancer cells without affecting cellular viability; PARPi/PI3K treatment activates tumor-cell extrinsic cGAS/STING pathway within TAMs in vivo via MV surface-associated DNA DSBs released from tumor cells. Myc-CAP cancer cells were treated with the indicated drugs singly or in combination for 36 hours. (29A) Cells were stained with anti-mouse specific p-γH2AX antibody and a fluorescently labeled secondary antibody for determination of DNA DSBs, which were quantified by confocal microscopy. (29B) Protein extracts from cells in 29A were analyzed for the indicated pharmacodynamic biomarkers by western blotting; (29C) Annexin V-PI staining was done to assess frequency of live cells (Annexin V^− PI^−) following drug treatment. (29D) Ultracentrifugation was utilized to purify microvesicles (MVs) from supernatants in treatment groups in (29A) and associated DNA DSBs was quantified by Nanodrop®. Independent experiments n=2. (29E) Ultracentrifugation was utilized to purify MVs from supernatants in indicated treatment groups in FIG. 17A, and associated DNA DSBs were quantified by Nanodrop®; n=2 independent experiments. […]

[2] = test system: single cell suspensions derived from Myc-CAP (STING^lo) tumors; test: Ex vivo reconstitution assay, IFNβ ELISA; format: cell-based, mouse; conditions: ex vivo
Method: FIGS. 15A-15E. Differential STING pathway activation within B6-Myc (STING^hi) cell lines and BMDMs relative to Myc-CAP (STING^lo) cells. (15A, 15B) The indicated cancer cell lines and BMDMs were treated with DMXAA (mouse STING agonist) for 1 and 24 hours, respectively, and protein extracts were interrogated for cGAS/STING pathway activation with the indicated antibodies by Western blotting. Supernatants were collected from for IFNβ1 ELISA following 36 hours of treatment with DMXAA (15C, 15D). (15E) Syngeneic Myc-CAP (STING^lo) tumors were processed into single cell suspensions and used for phycoerythrin-based sorting of CD45+ cellular fractions. Equal numbers of cells from these fractions were stimulated with DMXAA. Supernatants were collected at 36 hrs for detection of IFNB1 by ELISA; n=3 independent experiments; Significance/p-values were calculated by one-way Anova (for 15C & 15E) or paired t-test (for 15D); TAM=tumor associated macrophage; s.e.=short exposure; l.e.=long exposure.
FIGS. 29A-29M. PARPi alone induces DNA DSBs, but not apoptosis even in combination with PI3Ki in Myc-CAP (STING^lo) cancer cells; PARPi/PI3Ki combination induces intracellular DNA DSBs and proportionate release of MV surface-associated DNA DSBs from B6-Myc (STINGhi) cancer cells without affecting cellular viability; PARPi/PI3K treatment activates tumor-cell extrinsic cGAS/STING pathway within TAMs in vivo via MV surface-associated DNA DSBs released from tumor cells. Myc-CAP cancer cells were treated with the indicated drugs singly or in combination for 36 hours. (29A) Cells were stained with anti-mouse specific p-γH2AX antibody and a fluorescently labeled secondary antibody for determination of DNA DSBs, which were quantified by confocal microscopy. (29B) Protein extracts from cells in 29A were analyzed for the indicated pharmacodynamic biomarkers by western blotting; (29C) Annexin V-PI staining was done to assess frequency of live cells (Annexin V^− PI^−) following drug treatment. (29D) Ultracentrifugation was utilized to purify microvesicles (MVs) from supernatants in treatment groups in (29A) and associated DNA DSBs was quantified by Nanodrop®. Independent experiments n=2. (29E) Ultracentrifugation was utilized to purify MVs from supernatants in indicated treatment groups in FIG. 17A, and associated DNA DSBs were quantified by Nanodrop®; n=2 independent experiments. (29F) Syngeneic mice were engrafted with Myc-CAP (STING^lo) cells, and tumors were harvested when the tumor volume reached 400 mm^3. Single cell suspensions of the tumors were treated with the indicated drug(s), in the presence or absence of GW4869 (MV biogenesis inhibitor). (29G) Bone marrow derived macrophage (BMDMs) were co-cultured for 30 hours with supernatants (−/+ exogenous 50 units of DNase I pre-treatment for 30 minutes) from Myc-CAP cells that were treated with the indicated drug(s) for 36 hours. (29H) cGAMP (10 μg/mL) was pre-incubated with 10 units of DNAse I or mock control for 30 minutes and then added to BMDMs for 30 hours. (29I-29L) STING^+/+/STING^−/− BMDMs were co-cultured for 36 hours with supernatants from Myc-CAP and B6-Myc cancer cells that were treated with the indicated drug(s) for 36 hours. Supernatants were collected from 29F-29L at the end of treatment and analyzed for IFNβ1 by ELISA. […] Tumor volume was recorded daily for duration of experiment. […] Significance/p-values were calculated by one-way ANOVA. […]

[3] = test system: Myc-CAP (STING^lo) tumors; test: Myc-CAP syngeneic tumor growth; format: in vivo, mouse; conditions: for effect of concomitant agent on anti-tumor response elicited by degarelix/rucaparib/buparlisib (ADT/PARPi/PI3Ki): syngeneic mice
Method: FIGS. 25A and 25B. […] (25A-25B) Myc-CAP (STING^lo) tumor-bearing syngeneic mice were treated with the indicated drug(s) until untreated tumors reached approx. 2500 mm^3. Tumor volume curves for duration of treatment are shown.
FIGS. 26A-26D. […] Immunodeficient athymic nude (26A) and NOD-SCID (26B) mice were engrafted with Myc-CAP (STING^lo) tumors and treated with the indicated drug(s) until untreated tumors reached approx. 2000 mm^3. Tumor volume curves for duration of treatment are shown. For 26A-26B, n=3-4 mice per group. (26C-26D) Single-cell suspensions were generated from harvested tumors and analyzed by flow cytometry for the indicated immune cell populations and their activation states. Data are represented relative to CD45+ immune cells. For 26C-26D, n=3-5 animals per treatment group from 2 independent experiments. Significance/p-values were calculated by […].
FIGS. 29A-29M. […] Myc-CAP cancer cells were treated with the indicated drugs singly or in combination for 36 hours. (29A) Cells were stained with anti-mouse specific p-γH2AX antibody and a fluorescently labeled secondary antibody for determination of DNA DSBs, which were quantified by confocal microscopy. (29B) Protein extracts from cells in 29A were analyzed for the indicated pharmacodynamic biomarkers by western blotting; (29C) Annexin V-PI staining was done to assess frequency of live cells (Annexin V^− PI^−) following drug treatment. (29D) Ultracentrifugation was utilized to purify microvesicles (MVs) from supernatants in treatment groups in (29A) and associated DNA DSBs was quantified by Nanodrop®. Independent experiments n=2. (29E) Ultracentrifugation was utilized to purify MVs from supernatants in indicated treatment groups in FIG. 17A, and associated DNA DSBs were quantified by Nanodrop®; n=2 independent experiments. (29F) Syngeneic mice were engrafted with Myc-CAP (STING^lo) cells, and tumors were harvested when the tumor volume reached 400 mm^3. Single cell suspensions of the tumors were treated with the indicated drug(s), in the presence or absence of GW4869 (MV biogenesis inhibitor). (29G) Bone marrow derived macrophage (BMDMs) were co-cultured for 30 hours with supernatants (−/+ exogenous 50 units of DNase I pre-treatment for 30 minutes) from Myc-CAP cells that were treated with the indicated drug(s) for 36 hours. (29H) cGAMP (10 μg/mL) was pre-incubated with 10 units of DNAse I or mock control for 30 minutes and then added to BMDMs for 30 hours. (29I-29L) STING^+/+/STING^−/− BMDMs were co-cultured for 36 hours with supernatants from Myc-CAP and B6-Myc cancer cells that were treated with the indicated drug(s) for 36 hours. Supernatants were collected from 29F-29L at the end of treatment and analyzed for IFNβ1 by ELISA. (29M) Myc-CAP (STING^lo) tumor-bearing mice were treated with the indicated drug(s) until tumors first reached approx. 2500 mm^3. For the degerelix/rucaparib/buparlisib combination, additional cohorts of mice underwent concomitant treatment with STING antagonist H-151 or GW4869. Tumor volume was recorded daily for duration of experiment. For in vitro experiments, n=2 independent experiments and for in vivo experiments n=3-4 animals /group.

Row | IC90 [1] | Compound | effect of concomitant agent on anti-tumor response elicited by degarelix/rucaparib/buparlisib (ADT/PARPi/PI3Ki) [3] | also measured
1 | 500 nM | Cc1c(Cn2c(C)nc3c(C(=O)O)cc(N4CCOCC4)cc32)cccc1C(F)(F)F [GSK771] |  | STING expression (western blotting) (Myc-CAP-PTEN^−/− cells): restored
2 | 500 nM | C[C@H](NC(=O)c1c(N)nn2cccnc12)c1cc2cccc(C#Cc3cnn(C)c3)c2c(=O)n1-c1ccccc1 [IPI549] |  | 
3 |  | Nc1nc2c(ncn2[C@@H]2O[C@@H]3COP(=O)(O)O[C@H]4[C@@H](O)[C@H](n5cnc6c(N)ncnc65)O[C@@H]4COP(=O)(O)O[C@@H]2[C@@H]3O)c(=O)[nH]1 [cGAMP, cyclic guanosine monophosphate-adenosine monophosphate] |  | Type I IFN production within BMDMs after DNase I pre-treatment of the agent (BMDMs): did not abrogate the Type I IFN production
4 |  | O=C(/C=C/c1ccc(/C=C/C(=O)Nc2ccc(C3=NCCN3)cc2)cc1)Nc1ccc(C2=NCCN2)cc1 [GW4869] | abrogated the anti-tumor response; also recorded: significant abrogation | effect of concomitant agent on IFNβ / Type I IFN production following rucaparib/buparlisib (PARPi/PI3Ki) [2]: abolished the IFNβ production; also recorded: Significant down-regulation of Type I IFN production
5 |  | CCc1ccc(NC(=O)Nc2c[nH]c3ccccc23)cc1 [H-151] | abrogated the anti-tumor response | effect of concomitant agent on anti-tumor response elicited by PARPi/PI3Ki ([3]; c-myc driven murine PC models, immunocompetent mice): abrogated
